Results on two compounds are retold here after US20240228501A1, “IMIDAZOLE-CONTAINING CONDENSED RING DERIVATIVE, PREPARATION METHOD THEREFOR, AND APPLICATION THEREOF IN MEDICINE” (CHANGCHUN GENESCIENCE PHARMACEUTICAL CO., LTD., priority 2021, published 2024).

The target in one data set is T1, human NK-3 receptor (Homo sapiens, UniProt P29371).
T1 construct: expressed in transfected cells; host or cells: HEK293
T1 sequence (P29371 1-465): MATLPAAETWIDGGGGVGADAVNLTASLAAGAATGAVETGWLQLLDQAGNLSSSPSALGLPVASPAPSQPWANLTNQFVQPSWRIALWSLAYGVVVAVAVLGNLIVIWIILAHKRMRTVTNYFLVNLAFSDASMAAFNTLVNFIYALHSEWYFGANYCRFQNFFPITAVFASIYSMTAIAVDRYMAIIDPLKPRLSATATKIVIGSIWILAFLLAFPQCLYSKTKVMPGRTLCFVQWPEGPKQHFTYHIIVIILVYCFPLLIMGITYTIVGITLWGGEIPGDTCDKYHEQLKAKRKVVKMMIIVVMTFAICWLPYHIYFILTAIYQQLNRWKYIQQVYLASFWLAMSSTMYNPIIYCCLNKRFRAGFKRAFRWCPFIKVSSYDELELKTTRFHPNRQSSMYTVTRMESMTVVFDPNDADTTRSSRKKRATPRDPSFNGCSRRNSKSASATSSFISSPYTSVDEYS
The data set can be described thus: Antagonistic activity on human NK-3 receptor in human NK-3R/HEK293 stably transfected cells (Fluo-4, FLIPR, Neurokinin B as agonist). The data set is classed as cell-based. Conditions: human NK-3R/HEK293 cells. The method in brief: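 HEK293 cells stably expressing human NK-3R loaded with Component A dye 2 h at 37° C, then preincubated with serially 3-fold diluted compound 30 min at 25° C. Neurokinin B (2.5 nM, 6× stock) added on FLIPR Tetra to read calcium signal. IC50 from inhibition curves versus reference agonist.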

A short description of data set [1]: Pharmacokinetic test in rats (gavage 3 mg/kg, intravenous 1 mg/kg). Type of data set: in vivo. Conditions: rat, plasma, SD rats; for Cmax: read-out: Blood concentration Cmax; for AUC: read-out: Curve area AUC; for half-life: read-out: Half life T1/2 (converted). As for the experimental part: Test Example 2: Pharmacokinetic Test of Compounds of the present invention in Rats
(§1) To study in vivo pharmacokinetic behaviors of the compounds of the present invention in rats, and evaluate pharmacokinetic characteristics thereof.
An appropriate amount of sample was weighed, and ultrasonically prepared into a 0.3 mg/mL suspension for the gavage administration group; and was prepared into a 0.2 mg/mL suspension for the intravenous administration group as per a formula of 5% DMSO+10% Solutol+85% (20% SBE-β-CD).
SD rats were fasted overnight, and then administered by gavage at a dosage of 3 mg/kg and by intravenous injection at a dosage of 1 mg/kg, respectively.
0.1 mL of blood was collected before administration and at 5 min, 15 min, 30 min, 1 h, 2 h, 4 h, 8 h, and 24 h after administration, transferred into heparinized tubes, and centrifuged at 3500 rpm for 10 min to separate the plasma, which was stored at −20° C. 4 h after administration, the animals were resumed for feeding/free access to water.
Contents of the test compounds in plasma of the rats after gavage administration were determined by LC/MS/MS.

A further data set relates to MDR1. As to the kind of experiment: In vitro brain model test: MDR1-MDCKII bidirectional permeability. The data set is classed as in vitro ADME. As to conditions: dog; for Papp A→B at 2.5 h, 2 μM / Papp B→A at 2.5 h, 2 μM: MDCK-MDR1, pH 7.4, 2 μM, pH7.4. On the procedure: The test product was diluted from dimethyl sulfoxide stock solution to a concentration of 2 μM (dimethyl sulfoxide <1%) with a transfer buffer (HBSS containing 10 mM Hepes, pH7.4); and was applied to apical or basolateral cavities of the cell monolayer. Penetration of the test compound from the direction A to the direction B or from the direction B to the direction A was determined in duplicate. Digoxin was detected at 10 μM in the direction of A-B, or detected in the direction of B-A, while Nadolol and Metoprolol were detected at 2 μM in the direction of A-B in duplicate. The plate was cultivated in a CO2 incubator at 37±1° C. for 2.5 h with 5% CO2 at a saturated humidity without shaking. Further, the efflux rate of each compound was also determined. According to the peak area ratio of analyte/IS, the test product and the control product were quantitatively analyzed by LC-MS/MS.
After the transfer test, the monolayer integrity of cells was determined by a lucifer yellow exclusion assay. Buffer was removed from apical and basolateral cavities, and then 75 μL of 100 μM lucifer yellow and 250 μL of transfer buffer were added into the apical and basolateral cavities, respectively. The culture dish was cultivated at 37° C., 5% CO2, and saturated humidity for 30 min without shaking. After incubation for 30 min, 20 μL of lucifer yellow sample was extracted from the top, and then 60 μL of the transfer buffer was added. Then, 80 μL of lucifer yellow sample was extracted basolaterally. Relative Fluorescence Units (RFU) of lucifer yellow were measured at 425/528 nm (excitation/emission) with an Envision plate reader.

The nature of data set [2]: Pharmacokinetic test in rats: plasma and brain concentration after gavage 3 mg/kg. Conditions: rat, oral, SD rats. Type of data set: in vivo. On the procedure:
Test Example 4: Pharmacokinetic Test of Compounds of the Present Invention in Rats
as §1
An appropriate amount of sample was weighed, and ultrasonically prepared into a 0.3 mg/mL suspension for the gavage administration group as per a formula of 5% DMSO+10% Solutol+85% (20% SBE-β-CD).
SD rats were fasted overnight, and then administered by gavage at a dosage of 3 mg/kg respectively.
Blood and cerebrospinal fluid were collected at designed time points after administration, and then brain tissue was collected after cardiac perfusion with normal saline. Plasma was collected by centrifugation within 1 h, and then immediately transferred onto wet ice. Centrifugation conditions: 4-10° C., 8,000 rpm, 6 min. 4 h after administration, the animals were resumed for feeding/free access to water.
The concentrations of corresponding compounds in plasma and cerebrospinal fluid were detected by LC-MS/MS.

Setting [3] is: brain/plasma, read-out: B/P ratio.

Where two headings read alike, the source gives them in different places.

In general, IC50 refers to the midpoint of a concentration-inhibition curve. Low values mean higher potency, high ones lower potency. Usually bioavailability stands for the share of a dose that reaches the circulation, judged against a reference dose that is usually intravenous. The AUC is concentration integrated over time. Broadly, the Papp A→B is how fast a substance crosses the layer from the apical side. A low value points to slow passage. As a reminder, the Papp B→A is the apparent permeability from the basolateral to the apical side of a cell layer. As to `Cc1nsc(-c2nc(-c3cc(F)ncc3F)c3n2CCN(C(=O)c2ccc(F)cc2)[C@@H]3C)n1` [Compound 077, (R)-(1-(2,5-difluoropyridin-4-yl)-8-methyl-3-(3-methyl-1,2,4-thiadiazol-5-yl)-5,6-dihydroimidazo[1,5-a]pyrazin-7 (8H)-yl)(4-fluorophenyl)methanone], the IC50 on human NK-3 receptor stood at 14.5 nM. Further, the bioavailability in data set [1] (po, gavage 3 mg/kg vs intravenous 1 mg/kg, read-out: Oral bioavailability F (%)) worked out at 58.4%. In data set [1] (po, gavage 3 mg/kg), the Cmax was 494 ± 70.6 ng/mL. In addition, the exposure (AUC) turned out to be 9860 ± 3550 ng·h/mL in data set [1] (po, gavage 3 mg/kg) and 5170 ± 581 ng·h/mL in data set [1] (intravenous injection 1 mg/kg). Also, the half-life in data set [1] (po, gavage 3 mg/kg) is 702 ± 463 min; in data set [1] (intravenous injection 1 mg/kg), 709 ± 212 min. Besides, in the data set with MDR1, the Papp A→B at 2.5 h, 2 μM is 18.3 ×10⁻⁶ cm/s. Moreover, the Papp B→A at 2.5 h, 2 μM in the data set with MDR1 was found to be 14 ×10⁻⁶ cm/s. Further, in the data set with MDR1 (MDCK-MDR1, pH 7.4, B to A / A to B, read-out: Efflux rate), the efflux ratio at 2.5 h, 2 μM was determined as 0.77. The concentration at 0.5 h in data set [2] (brain, sampling time 0.5 h, read-out: Brain conc.) stood at 2570 ± 178 ng/mL; in data set [2] (plasma, sampling time 0.5 h, read-out: Plasma conc.), 798 ± 79.8 ng/mL. Further, the concentration at 2 h in data set [2] (brain, read-out: Brain conc.) was 1980 ± 232 ng/mL; in data set [2] (plasma, read-out: Plasma conc.), 547 ± 94.5 ng/mL. Also, the concentration at 8 h in data set [2] (brain, sampling time 8 h, read-out: Brain conc.) worked out at 2020 ± 406 ng/mL; in data set [2] (plasma, sampling time 8 h, read-out: Plasma conc.), 598 ± 74.9 ng/mL. Moreover, in data set [2] (brain/plasma, sampling time 0.5 h, read-out: B/P ratio), the Kp at 0.5 h worked out at 3.25. Also, the Kp at 2 h in data set [2] (setting [3]) is 3.66. Moreover, the Kp at 8 h in data set [2] (brain/plasma, sampling time 8 h, read-out: B/P ratio) came out at 3.36.
In the case of `Cc1nsc(-c2nnc3n2CCN(C(=O)c2ccc(F)cc2)[C@@H]3C)n1` [Fezolinetant, reference compound], the IC50 at human NK-3 receptor was 734 nM. The Cmax in data set [1] (po, gavage 3 mg/kg) is 2180 ng/mL. Moreover, the AUC stood at 10100 ng·h/mL in data set [1] (po, gavage 3 mg/kg) and 2670 ng·h/mL in data set [1] (intravenous injection 1 mg/kg). Besides, the half-life in data set [1] (po, gavage 3 mg/kg) was 193 min; in data set [1] (intravenous injection 1 mg/kg) it was 116 min. Besides, the Papp A→B at 2.5 h, 2 μM in the data set with MDR1 is 26.2 ×10⁻⁶ cm/s. Further, the Papp B→A at 2.5 h, 2 μM in the data set with MDR1 was 28.4 ×10⁻⁶ cm/s. For the same compound, the concentration at 1 h in data set [2] (brain, sampling time 1 h, read-out: Brain conc.) stood at 512 ± 88.4 ng/mL; in data set [2] (plasma, sampling time 1 h, read-out: Plasma conc.) it was 1330 ± 177 ng/mL. The concentration at 2 h in data set [2] (brain, read-out: Brain conc.) was 585 ± 117 ng/mL; in data set [2] (plasma, read-out: Plasma conc.), 1280 ± 110 ng/mL. The concentration at 4 h in data set [2] (brain, sampling time 4 h, read-out: Brain conc.) is 419 ± 37.1 ng/mL; in data set [2] (plasma, sampling time 4 h, read-out: Plasma conc.), 961 ± 21 ng/mL. Also, the Kp at 1 h in data set [2] (brain/plasma, sampling time 1 h, read-out: B/P ratio) turned out to be 0.38. The Kp at 2 h in data set [2] (setting [3]) stood at 0.46. Moreover, in data set [2] (brain/plasma, sampling time 4 h, read-out: B/P ratio), the Kp at 4 h was found to be 0.44.
